For one assay, the system named is NALM-6 (Leukemia). The experiment in a line: MTT cytotoxicity assay, NALM-6 cells, 48 hours. Type of assay: cell-based, human. The conditions noted are these: 48 hours incubation, read-out: IC50 [MTT Assays] NALM-6 (Leukemia). Here is the method: (§1) The cells were incubated with concentrations ranging from 0.1 μM to 250 μM of the appropriate compound in 96-well plates for 48 hours. Cytotoxicity was determined by MTT [(3-[4,5-dimethylthiazol-2-yl]-2,5-diphenyl tetrazolium bromide)] assays. The results are graphed in FIG. 1a for NALM-6 cells and FIG. 1b for MOLT-3 cells.
(§2) Cytotoxicity was determined by MTT assays and the IC50 values were determined using Graphpad Prism Software.

A further assay deals with BT-20 (Breast Cancer). The experiment in a line: MTT cytotoxicity assay, BT-20 cells, 48 hours. In kind it is cell-based. The conditions noted are these: 48 hours incubation, read-out: IC50 [MTT Assays] BT-20 (Breast Cancer). The protocol: as §2
The subject of a further assay is PC3 (Prostate Cancer). As to the kind of experiment: MTT cytotoxicity assay, PC3 cells, 48 hours. As to conditions: 48 hours incubation, read-out: IC50 [MTT Assays] PC3 (Prostate Cancer). Type of assay: cell-based. Here is the method:
as §2

The subject of another assay is U373 (Brain Tumor). As to the kind of experiment: MTT cytotoxicity assay, U373 cells, 48 hours. In kind it is cell-based. As to conditions: 48 hours incubation, read-out: IC50 [MTT Assays] U373 (Brain Tumor). Here is the method:
as §2

For the next assay, the system named is MOLT-3 (Leukemia). The experiment in a line: MTT cytotoxicity assay, MOLT-3 cells, 48 hours. In kind it is cell-based, human. The conditions noted are these: 48 hours incubation, read-out: IC50 [MTT Assays] MOLT-3 (Leukemia). Here is the method: as §1, §2
The test system of assay [1] is HS-Sultan (Multiple Myeloma). As to the kind of experiment: MTT cytotoxicity assay, HS-Sultan cells, 48 hours. Type of assay: cell-based. The conditions noted are these: 48 hours incubation, read-out: IC50 [MTT Assays] HS-Sultan (Multiple Myeloma). Here is the method:
as §2

Assay [2] deals with U266BL (Multiple Myeloma). The experiment in a line: MTT cytotoxicity assay, U266BL cells, 48 hours. Type of assay: cell-based. The conditions noted are these: 48 hours incubation, read-out: IC50 [MTT Assays] U266BL (Multiple Myeloma). Here is the method:
as §2

Assay [3] concerns B-lineage acute lymphoblastic leukemia (NALM-6) cells. The experiment in a line: In situ apoptosis assay (TUNEL), NALM-6 cells. In kind it is cell-based, human. As to conditions: 5 μM, 48 hours. Here is the method:
(§3) The effectiveness of inducing apoptosis by compound (5) as synthesized and described in example 2 was measured for human B-lineage acute lymphoblastic leukemia (NALM-6) cells, T-lineage acute lymphoblastic leukemia (MOLT-3) cells, and multiple myeloma (ARH-77) cells. The cells were incubated with concentrations of 5 μM of compound (5) in 96-well plates 48 hours. An in situ apoptosis assay, which allows the detection of exposed 3′-hydroxyl groups in fragmented DNA by TdT-mediated dUTP nick-end labeling (TUNEL), was used by fixing, permeabilizing and visualizing the DNA degradation. Apoptotic nuclei were detected visually with a color change. The amount of apoptotic nuclei of the control cells (not incubated with compound (5)) and the incubated cells were compared.

Assay [4] relates to T-lineage acute lymphoblastic leukemia (MOLT-3) cells. As to the kind of experiment: In situ apoptosis assay (TUNEL), MOLT-3 cells. Type of assay: cell-based, human. As to conditions: 5 μM, 48 hours. Here is the method: as §3
For assay [5] the test system is unchanged. The experiment in a line: Clonogenic growth assay, MOLT-3 cells. Type of assay: cell-based, human. As to conditions: 24 hours exposure, 7 days culture. Here is the method:
(§4) The effect on clonogenic growth of human cancer cell lines was determined for compound (5) as synthesized and described in example 2 and cisplastin for human B-lineage acute lymphoblastic leukemia (NALM-6) cells and T-lineage acute lymphoblastic leukemia (MOLT-3) cells. The cells were incubated with concentrations ranging from 0 (control) to 10 μM of the appropriate compound for 24 hours at 37° C. in a humidified 5% CO2 atmosphere. The cells were then resuspended in clonogenic a-MEM medium containing 0.9% methyl cellulose. 1×10^4 cells/dish were plated in 35 mm Petri dishes and cultured for 7 days at 37° C. in a humidified 5% CO2 atmosphere. The colonies containing ≧20 cells were counted using an inverted phase microscope.

Assay [6] concerns B-lineage acute lymphoblastic leukemia (NALM-6) cells. As to the kind of experiment: Clonogenic growth assay, NALM-6 cells. Type of assay: cell-based, human. The conditions noted are these: 24 hours exposure, 7 days culture. The protocol:
as §4

Assay [7] deals with multiple myeloma (ARH-77) cells. The experiment in a line: In situ apoptosis assay (TUNEL), ARH-77 cells. Type of assay: cell-based, human. The conditions noted are these: 5 μM, 48 hours. Here is the method:
as §3

Assay [8] deals with MDA-MB-231 (Breast Cancer). The experiment in a line: MTT cytotoxicity assay, MDA-MB-231 cells, 48 hours. In kind it is cell-based. As to conditions: 48 hours incubation, read-out: IC50 [MTT Assays] MDA-MB-231 (Breast Cancer). The protocol: as §2

The values below come from patent US6737537B2, “Platinum (II) antitumor compounds” (Parker Hughes Institute, priority 1999, dated 2004).

A value given as a limit tells only on which side of the number the result lay.

Regarding cis-[Pt(CPDCA)(NH3)2]H2O [(6) DDE173], the IC50 with NALM-6 (Leukemia) is 90.8 ± 6.2 µM; with BT-20 (Breast Cancer) it was greater than 250 µM; in the assay on PC3 (Prostate Cancer), greater than 250 µM; in the assay with U373 (Brain Tumor), greater than 250 µM; in the assay on MOLT-3 (Leukemia), 41.8 ± 3.5 µM.
For “cis-[Pt(CPDCA)(NH2C2H4OH)2] [(3) DDE248]”, the 50% inhibitory concentration (IC50) was 75.3 ± 5.2 µM in the assay on NALM-6 (Leukemia); 48.9 ± 7.3 µM with BT-20 (Breast Cancer); 248 ± 9.3 µM in the assay on PC3 (Prostate Cancer); 130 ± 8.2 µM with U373 (Brain Tumor); 33.5 ± 4.5 µM in the assay with MOLT-3 (Leukemia).
Turning to `N.N.[Cl][Pt][Cl]` [Cisplatin, reference compound], the IC50 is 1.1 ± 0.02 µM in the assay on NALM-6 (Leukemia); 7.21 ± 3.5 µM with BT-20 (Breast Cancer); greater than 250 µM in the assay on PC3 (Prostate Cancer); 31.8 ± 7.2 µM in assay [1]; greater than 250 µM in the assay with U373 (Brain Tumor); 15.6 ± 3.5 µM in [2]. In addition, the concentration for half-maximal inhibition (IC50) in the assay with MOLT-3 (Leukemia) is 1.04 ± 0.02 µM.
For the molecule cis-[Pt(CPDCA)(DACH)]H2O [(5) DDE250], the “apoptosis (apoptotic nuclei, TUNEL) over the control” value in [3], in assay [4] and in [7] was “greatly increased apoptosis over the control” each time. In addition, the “% Inhibition (clonogenic growth)” value in assay [5] (MOLT-3, 0.01 μM) worked out at 67.7%; in [5] (MOLT-3, 0.1 μM) it was 67.5%; in assay [5] (MOLT-3, 1 μM) it was 95.1%; in [6] (NALM-6, 0.01 μM), 42.9%; in [6] (NALM-6, 0.1 μM), 48.4%; in assay [6] (NALM-6, 1 μM) it was 93.3%. Further, the “Mean No. of Colonies/10^5 cells” value is given as 1182 (1080, 1284) Colonies/10^5 cells in assay [5] (MOLT-3, 0.01 μM); 1188 (1095, 1281) Colonies/10^5 cells in assay [5] (MOLT-3, 0.1 μM); 179 (170, 188) Colonies/10^5 cells in assay [5] (MOLT-3, 1 μM); 0 Colonies/10^5 cells in [5] (MOLT-3, 10 μM); 2110 (1928, 2292) Colonies/10^5 cells in assay [6] (NALM-6, 0.01 μM); 1908 (1886, 1930) Colonies/10^5 cells in assay [6] (NALM-6, 0.1 μM). For the same molecule, the “Mean No. of Colonies/10^5 cells” value in assay [6] (NALM-6, 1 μM) was 248 (228, 268) Colonies/10^5 cells; in assay [6] (NALM-6, 10 μM) it was 0 Colonies/10^5 cells. Also, the IC50 in the assay on NALM-6 (Leukemia) is 0.45 ± 0.02 µM; in assay [8] it was 38.5 ± 6.4 µM; in the assay on BT-20 (Breast Cancer), 21.3 ± 3.1 µM; in the assay on PC3 (Prostate Cancer), greater than 250 µM; in [1] it was 21.5 ± 3.5 µM; in the assay with U373 (Brain Tumor) it was greater than 250 µM. In addition, the IC50 amounted to 18.6 ± 2.1 µM in assay [2] and 0.66 ± 0.01 µM in the assay on MOLT-3 (Leukemia).
